The text below walks through data of the NIST ThermoML archive (doi:10.1016/j.jct.2013.11.001).

A short description of this data set: cn = amount concentration of the nth substance listed, in mol/dm3. The note with it: 298.15 K, 101 kPa, Liquid, c1 = 0.1; for speed of sound: Sing-around technique in a fixed-path interferometer; for mass density: Vibrating tube method.

± gives the expanded uncertainty stated by the source.

In general, speed of sound refers to the propagation velocity of pressure waves in the medium. Broadly, the mass density is the mass of a sample divided by its volume. For `CCCCCCCCCCCC[N+](C)(C)C.[Br-]` [dodecyltrimethylammonium bromide] + O, the speed of sound was 1502 ± 1.2 m/s and the mass density is on record as 998.575 ± 0.11 kg/m3.
On the same counts, the results for `CCCCCCCCCCCCCC[N+](C)(C)C.[Br-]` [tetradecyltrimethylammonium bromide] + O are 1499.5 ± 1.2 m/s and 998.003 ± 0.11 kg/m3.
